{
  "source": "patent US20250082565A1",
  "about": "“ANTIOXIDANT COSMETIC COMPLEX, COSMETIC COMPOSITION, USE AND METHOD FOR COSMETIC TREATMENT” (Natura Cosméticos S.A., priority 2023, published 2025)",
  "key": {"[1]": {"assay": "Suppression of triplet species (laser flash photolysis)", "conditions": "Stern-Volmer model; 10 μM methylene blue, excitation 660 nm, argon purged; individual actives", "procedure": "(§1) The excited state suppression ability was assessed by measuring the transient absorption of triplet states using flash photolysis and by singlet oxygen emission in the near infrared.\nTriplet suppression: The SHB Laser Flash Photolysis system was used (FIG. 14). A laser pulse (10 mJ/pulse, 10-20 ns) impinges on the sample providing electronic excitation. To assess the formation and the lifetime of excited states or other reactive intermediates, the change in absorbance prior to and after electronic excitation of the sample is monitored by an optical beam (LED) as a function of time. It monitors the disappearance of the species in the fundamental state or the appearance of the excited or radical species. The laser beam is positioned at 90° to the monitoring beam. Shutters are used in both the excitation and monitoring beams to protect the sample from photolysis. The detector in this technique consists of a combination of filters and diode detector. The diode response is read on a digital oscilloscope (Tektronix 2230), which data is subsequently transferred to the microcomputer. The entire equipment is controlled by a microcomputer and the time resolution of the instrument is of about 50 ns. A Quantel Nd: YAG laser (2 w, 3 w Rainbow, pulsed at 3 ns, 80.1% power) was used. […] Readings were taken in a 2 mm×10 mm quartz cuvette. […]"}, "[2]": {"assay": "Singlet oxygen suppression (emission at 1270 nm)", "conditions": "Stern-Volmer model; phosphorescence at 1270 nm in ethanol", "procedure": "as §1\nSinglet oxygen suppression: The detector (PMT Hamamatsu R5509—model PC176TSCE005) was cooled to −80° C. and set to 1500 V and the signals were acquired using a proprietary software from SHB Analytics GmbH (Germany). Excitation was performed by a Quantel Brilliant laser (2 w-3 w-Rainbow). Emission from the sample is filtered so that irradiation in the range of from […] is detected. A microcomputer is connected to the system and analysis of the transients is carried out using an ultra-fast acquisition plate. It is important to remember that luminescence emission at 1270 nm is characteristic of singlet oxygen, being the safest method of detecting the presence and reactivity of this species. […]\nTo assess the actives' ability of suppressing singlet oxygen (1O2), the near-infrared emission (1270 nm) was measured, which is characteristic of 1O2 and a golden standard for this detection. […]\nThe detector (PMT Hamamatsu-model H10330-45) was cooled to −80° C. and set to −800 V and the signals were acquired using a proprietary software from SHB Analytics GmbH (Germany). […] Sample emission is detected in the range of 1270±20 nm. […]"}},
  "data": [
    {"smiles": "CC1=C(/C=C/C(C)=C/C=C/C(C)=C/C=C/C=C(C)/C=C/C=C(C)/C=C/C2=C(C)CCCC2(C)C)C(C)(C)CCC1", "note": "[Beta-carotene]", "values": [
      {"measurement": "KSt (triplet suppression constant)", "setting": "[1]", "result": "0.16 ± 0.05", "unit": "μg^−1μL"},
      {"measurement": "KSV (singlet oxygen suppression constant)", "setting": "[2]", "result": "30.5 × 10^4 mg^−1mLs^−1"}
    ]}
  ]
}
